According to patent US10308637B2 (LifeSci Pharmaceuticals, Inc., priority 2015, dated 2019):

Assay: Contact Assay (percentage inhibition from fluorescence intensity)
Assay type: biochemical
Description: The percentage inhibition was calculated using the following equation:
[formula] where, Mean(BG) is the average value of the fluorescence intensity of the background wells and Mean(PC) is the average value of the fluorescence intensity of the positive control wells.
Table 4 provides the EC50 values of various compounds disclosed herein.
`Cc1cc(N)nc(C)c1CNC(=O)c1ccnc(Cc2ccc3c(cc(Cl)c[n+]3[O-])c2)c1` [Example 99, 6-((4-(((6-amino-2,4-dimethylpyridin-3-yl)methyl)carbamoyl)pyridin-2-yl)methyl)-3-chloroquinoline 1-oxide] gave an EC50 of no more than 100 nM.
With `Cc1cc(N)nc(C)c1CNC(=O)c1ccnc(Cc2cc(Cl)c3ncc(Cl)cc3c2)c1` [Example 100, N-((6-amino-2,4-dimethylpyridin-3-yl)methyl)-2-((3,8-dichloroquinolin-6-yl)methyl)isonicotinamide] the EC50 was no more than 100 nM.
With `Cc1nc(N)ccc1CNC(=O)c1ccnc(Cc2cc(Cl)c3ncc(Cl)cc3c2)c1` [Example 101, N-((6-amino-2-methylpyridin-3-yl)methyl)-2-((3,8-dichloroquinolin-6-yl)methyl)isonicotinamide] the EC50 was no more than 100 nM.
With `Cc1cc(N)nc(C)c1CNC(=O)c1ccnc(Cc2ccc3ncc(Cl)cc3c2F)c1` [Example 102, N-((6-amino-2,4-dimethylpyridin-3-yl)methyl)-2-((3-chloro-5-fluoroquinolin-6-yl)methyl)isonicotinamide] the EC50 was 100 to 1000 nM.
Molecule `Cc1cc(C(=O)NCc2c(C)cc(N)nc2C)cc(Cc2ccc3ncc(Cl)cc3c2)n1` [Example 104, N-((6-amino-2,4-dimethylpyridin-3-yl)methyl)-2-((3-chloroquinolin-6-yl)methyl)-6-methylisonicotinamide] has an EC50 of no more than 100 nM.
`Cc1ccc2cc(Cc3cc(C(=O)NCc4c(C)cc(N)nc4C)ccn3)ccc2n1` [Example 113, N-((6-amino-2,4-dimethylpyridin-3-yl)methyl)-2-((2-methylquinolin-6-yl)methyl)isonicotinamide] showed an EC50 of no more than 100 nM.
Molecule `Cc1ccc2ncc(Cc3cc(C(=O)NCc4c(C)cc(N)nc4C)ccn3)cc2c1` [Example 114, N-((6-amino-2,4-dimethylpyridin-3-yl)methyl)-2-((6-methylquinolin-3-yl)methyl)isonicotinamide] has an EC50 of no more than 100 nM.
`Cc1ccc2ncc(Cc3cc(C(=O)NCc4ccc5c(N)nccc5c4)ccn3)cc2c1` [Example 115, N-((1-aminoisoquinolin-6-yl)methyl)-2-((6-methylquinolin-3-yl)methyl)isonicotinamide] gave an EC50 of no more than 100 nM.
With `Nc1nccc2cc(CNC(=O)c3ccnc(Cc4cnc5ccc(F)cc5c4)c3)ccc12` [Example 118, N-((1-aminoisoquinolin-6-yl)methyl)-2-((6-fluoroquinolin-3-yl)methyl)isonicotinamide] the EC50 was no more than 100 nM.
For `Cc1cnc2ccc(Cc3cc(C(=O)NCc4ccc5c(N)nccc5c4)ccn3)cc2c1` [Example 142, N-((1-aminoisoquinolin-6-yl)methyl)-2-((3-methylquinolin-6-yl)methyl)isonicotinamide], the EC50 was no more than 100 nM.
Molecule `Cc1cnc2ccc(Cc3cc(C(=O)NCc4c(C)cc(N)nc4C)ccn3)cc2c1` [Example 144, N-((6-amino-2,4-dimethylpyridin-3-yl)methyl)-2-((3-methylquinolin-6-yl)methyl)isonicotinamide] has an EC50 of no more than 100 nM.
Work on `Cc1cc2cc(Cc3cc(C(=O)NCc4c(C)cc(N)nc4C)ccn3)ccc2cn1` [Example 145, N-((6-amino-2,4-dimethylpyridin-3-yl)methyl)-2-((3-methylisoquinolin-6-yl)methyl)isonicotinamide] yielded an EC50 of no more than 100 nM.
In the case of `Cc1cc(N)nc(C)c1CNC(=O)c1ccnc(Cc2cc3cc(Cl)cnc3cn2)c1` [Example 148, N-((6-amino-2,4-dimethylpyridin-3-yl)methyl)-2-((3-chloro-1,7-naphthyridin-6-yl)methyl)isonicotinamide], the EC50 is reported as no more than 100 nM.
For `Cc1nc(N)ccc1CNC(=O)c1ccnc(Cc2cc3cc(Cl)cnc3cn2)c1` [Example 149, N-((6-amino-2-methylpyridin-3-yl)methyl)-2-((3-chloro-1,7-naphthyridin-6-yl)methyl)isonicotinamide], the EC50 was no more than 100 nM.
`Cc1cc(N)nc(C)c1CNC(=O)c1ccnc(Cc2cnc3[nH]c(C(F)(F)F)cc3c2)c1` [Example 152, N-((6-amino-2,4-dimethylpyridin-3-yl)methyl)-2-((2-(trifluoromethyl)-1H-pyrrolo[2,3-b]pyridin-5-yl)methyl)isonicotinamide] gave an EC50 of 100 to 1000 nM.
`Cc1cc(N)nc(C)c1CNC(=O)c1ccnc(Cc2cc3cc(Cl)cn3cn2)c1` [Example 153, N-((6-amino-2,4-dimethylpyridin-3-yl)methyl)-2-((6-chloropyrrolo[1,2-c]pyrimidin-3-yl)methyl)isonicotinamide] showed an EC50 of no more than 100 nM.
Molecule `Cc1ccn2cnc(CNC(=O)c3ccnc(Cc4ccc5ncc(Cl)cc5c4)c3)c2c1` [Example 156, 2-((3-chloroquinolin-6-yl)methyl)-N-((7-methylimidazo [1,5-a]pyridin-1-yl)methyl)isonicotinamide] has an EC50 of 100 to 1000 nM.
For `Cc1cc(CN)nc(C)c1CNC(=O)c1ccnc(Cc2ccc3ncc(Cl)cc3c2)c1` [Example 171, N-((6-(aminomethyl)-2,4-dimethylpyridin-3-yl)methyl)-2-((3-chloroquinolin-6-yl)methyl)isonicotinamide], the EC50 was 100 to 1000 nM.
In the case of `Cc1cc(CN)nc(C)c1CNC(=O)c1ccnc(Cc2ccc3ncc(C(F)(F)F)cc3c2)c1` [Example 172, N-((6-(aminomethyl)-2,4-dimethylpyridin-3-yl)methyl)-2-((3-(trifluoromethyl)quinolin-6-yl)methyl)isonicotinamide], the EC50 is reported as no more than 100 nM.
`Cc1nc2c(c(C)c1CNC(=O)c1ccnc(Cc3ccc4ncc(C(F)(F)F)cc4c3)c1)CCN2` [Example 176, N-((4,6-dimethyl-2,3-dihydro-1H-pyrrolo[2,3-b]pyridin-5-yl)methyl)-2-((3-(trifluoromethyl)quinolin-6-yl)methyl)isonicotinamide] gave an EC50 of 100 to 1000 nM.
With `Cc1c(CNC(=O)c2ccnc(Cc3ccc4ncc(Cl)cc4c3)c2)ccc2c(N)nccc12` [Example 177, N-((1-amino-5-methylisoquinolin-6-yl)methyl)-2-((3-chloroquinolin-6-yl)methyl)isonicotinamide] the EC50 was no more than 100 nM.
With `Nc1nccc2c(F)c(CNC(=O)c3ccnc(Cc4ccc5ncc(Cl)cc5c4)c3)ccc12` [Example 178, N-((1-amino-5-fluoroisoquinolin-6-yl)methyl)-2-((3-chloroquinolin-6-yl)methyl)isonicotinamide] the EC50 was no more than 100 nM.
Molecule `Nc1nccc2cc(CNC(=O)c3ccnc(Cc4ccc5ncc(Cl)cc5c4)c3)ccc12` [Example 179, N-((1-aminoisoquinolin-6-yl)methyl)-2-((3-chloroquinolin-6-yl)methyl)isonicotinamide] has an EC50 of no more than 100 nM.
With `Nc1nccc2cc(CNC(=O)c3ccnc(Cc4ccc5ncc(Cl)cc5c4)c3)c(F)cc12` [Example 180, N-((1-amino-7-fluoroisoquinolin-6-yl)methyl)-2-((3-chloroquinolin-6-yl)methyl)isonicotinamide] the EC50 was 100 to 1000 nM.
`Cc1cc2c(N)nccc2cc1CNC(=O)c1ccnc(Cc2ccc3ncc(Cl)cc3c2)c1` [Example 181, N-((1-amino-7-methylisoquinolin-6-yl)methyl)-2-((3-chloroquinolin-6-yl)methyl)isonicotinamide] gave an EC50 of no more than 100 nM.
Work on `Nc1nccc2cc(CNC(=O)c3ccnc(Cc4ccc5ncc(C(F)(F)F)cc5c4)c3)c(F)cc12` [Example 182, N-((1-amino-7-fluoroisoquinolin-6-yl)methyl)-2-((3-(trifluoromethyl)quinolin-6-yl)methyl)isonicotinamide] yielded an EC50 of 100 to 1000 nM.
`Cc1cc2c(N)nccc2cc1CNC(=O)c1ccnc(Cc2ccc3ncc(C(F)(F)F)cc3c2)c1` [Example 183, N-((1-amino-7-methylisoquinolin-6-yl)methyl)-2-((3-(trifluoromethyl)quinolin-6-yl)methyl)isonicotinamide] showed an EC50 of no more than 100 nM.
Molecule `Cc1c(CNC(=O)c2ccnc(Cc3ccc4ncc(C(F)(F)F)cc4c3)c2)ccc2c(N)nccc12` [Example 184, N-((1-amino-5-methylisoquinolin-6-yl)methyl)-2-((3-(trifluoromethyl)quinolin-6-yl)methyl)isonicotinamide] has an EC50 of no more than 100 nM.
With `Nc1nc(C(F)(F)F)n2cc(CNC(=O)c3ccnc(Cc4ccc5ncc(Cl)cc5c4)c3)ccc12` [Example 186, N-((1-amino-3-(trifluoromethyl)imidazo[1,5-a]pyridin-6-yl)methyl)-2-((3-chloroquinolin-6-yl)methyl)isonicotinamide] the EC50 was no more than 100 nM.
In the case of `Cc1cc(N)nc(C)c1CNC(=O)c1ccnc(Cc2cnc3ncc(Cl)cc3c2)c1` [Example 204, N-((6-amino-2,4-dimethylpyridin-3-yl)methyl)-2-((6-chloro-1,8-naphthyridin-3-yl)methyl)isonicotinamide], the EC50 is reported as no more than 100 nM.
Molecule `Cc1cc(N)nc(C)c1CNC(=O)c1cc(Cc2ccc3ncc(Cl)cc3c2)nc(C(N)=O)c1` [Example 208, N^4-((6-amino-2,4-dimethylpyridin-3-yl)methyl)-6-((3-chloroquinolin-6-yl)methyl)pyridine-2,4-dicarboxamide] has an EC50 of no more than 100 nM.
Molecule `Cc1cc(N)nc(C)c1CNC(=O)c1cc(Cc2ccc3ncc(Cl)cc3c2)nc(C(C)(C)O)c1` [Example 210, N-((6-amino-2,4-dimethylpyridin-3-yl)methyl)-2-((3-chloroquinolin-6-yl)methyl)-6-(2-hydroxypropan-2-yl)isonicotinamide] has an EC50 of no more than 100 nM.
Molecule `Cc1cc(N)nc(C)c1CNC(=O)c1cc(CN)nc(Cc2ccc3ncc(Cl)cc3c2)c1` [Example 211, N-((6-amino-2,4-dimethylpyridin-3-yl)methyl)-2-(aminomethyl)-6-((3-chloroquinolin-6-yl)methyl)isonicotinamide] has an EC50 of no more than 100 nM.
Molecule `Cc1cc(N)nc(C)c1CNC(=O)c1cc(CO)nc(Cc2ccc3ncc(Cl)cc3c2)c1` [Example 212, N-((6-amino-2,4-dimethylpyridin-3-yl)methyl)-2-((3-chloroquinolin-6-yl)methyl)-6-(hydroxymethyl)isonicotinamide] has an EC50 of no more than 100 nM.
For `Cc1cc(N)nc(C)c1CNC(=O)c1cc(CC#N)nc(Cc2ccc3ncc(Cl)cc3c2)c1` [Example 213, N-((6-amino-2,4-dimethylpyridin-3-yl)methyl)-2-((3-chloroquinolin-6-yl)methyl)-6-(cyanomethyl)isonicotinamide], the EC50 was no more than 100 nM.
